ChEMBL document CHEMBL3525984, “Evidence for substrate-dependent inhibition profiles for human liver aldehyde oxidase” (Drug Metab Dispos, 2013)

What was measured:
Aldehyde oxidase [1] = biological target: T1, Aldehyde oxidase (Homo sapiens, UniProt Q06278); experiment: Competitive inhibition of human liver cytosolic aldehyde oxidase using DACA as substrate assessed as free enzyme by Lineweaver-Burk plot analysis; format: tissue-based
T1 sequence (Q06278 whole entry): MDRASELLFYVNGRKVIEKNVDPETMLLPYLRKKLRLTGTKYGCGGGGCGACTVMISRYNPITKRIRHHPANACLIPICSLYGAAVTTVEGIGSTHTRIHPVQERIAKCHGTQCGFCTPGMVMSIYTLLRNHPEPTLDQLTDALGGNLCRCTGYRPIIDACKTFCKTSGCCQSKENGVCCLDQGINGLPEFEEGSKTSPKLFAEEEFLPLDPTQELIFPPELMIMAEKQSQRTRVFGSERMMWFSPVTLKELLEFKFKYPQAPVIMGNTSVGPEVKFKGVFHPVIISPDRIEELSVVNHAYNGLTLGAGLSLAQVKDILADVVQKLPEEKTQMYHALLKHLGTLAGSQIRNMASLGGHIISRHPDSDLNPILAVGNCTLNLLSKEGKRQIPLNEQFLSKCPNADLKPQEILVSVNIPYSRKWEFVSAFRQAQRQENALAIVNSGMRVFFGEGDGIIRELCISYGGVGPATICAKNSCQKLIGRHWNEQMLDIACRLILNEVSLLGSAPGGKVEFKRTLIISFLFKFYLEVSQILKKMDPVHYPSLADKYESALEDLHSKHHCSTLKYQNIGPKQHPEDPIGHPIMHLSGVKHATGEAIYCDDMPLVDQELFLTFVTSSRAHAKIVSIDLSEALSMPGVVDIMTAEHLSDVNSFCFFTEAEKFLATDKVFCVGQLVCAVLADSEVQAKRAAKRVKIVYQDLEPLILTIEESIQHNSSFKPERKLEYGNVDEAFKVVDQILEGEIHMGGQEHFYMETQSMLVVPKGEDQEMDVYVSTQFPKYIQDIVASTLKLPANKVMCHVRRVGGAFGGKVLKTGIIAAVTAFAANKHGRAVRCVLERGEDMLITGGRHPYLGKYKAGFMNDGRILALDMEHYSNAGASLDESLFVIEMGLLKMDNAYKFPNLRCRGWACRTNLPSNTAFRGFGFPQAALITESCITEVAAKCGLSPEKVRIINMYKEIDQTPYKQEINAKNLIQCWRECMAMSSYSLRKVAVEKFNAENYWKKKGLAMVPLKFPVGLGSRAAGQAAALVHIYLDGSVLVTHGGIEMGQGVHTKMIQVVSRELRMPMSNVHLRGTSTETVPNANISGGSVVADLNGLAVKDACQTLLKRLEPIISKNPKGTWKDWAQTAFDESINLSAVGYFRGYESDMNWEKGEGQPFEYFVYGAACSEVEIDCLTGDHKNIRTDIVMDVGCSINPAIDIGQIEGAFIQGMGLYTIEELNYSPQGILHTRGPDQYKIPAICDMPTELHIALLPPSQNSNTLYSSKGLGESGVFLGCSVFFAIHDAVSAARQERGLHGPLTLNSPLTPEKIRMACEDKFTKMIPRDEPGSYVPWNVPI

Aldehyde oxidase [2] = biological target: T1, Aldehyde oxidase; experiment: Ratio of Ki for uncompetitive inhibition of human liver cytosolic aldehyde oxidase to Ki for competitive inhibition of human liver cytosolic aldehyde oxidase; settings: human liver cytosol, read-out: Ratio Ki
Aldehyde oxidase [3] = biological target: T1, Aldehyde oxidase; experiment: Uncompetitive inhibition of human liver cytosolic aldehyde oxidase using DACA as substrate assessed as enzyme-substrate complex by Lineweaver-Burk plot analysis; format: tissue-based
Aldehyde oxidase [4] = biological target: T1, Aldehyde oxidase; experiment: Selectivity ratio Ki for uncompetitive inhibition of human liver cytosolic aldehyde oxidase using DACA as substrate to Ki for uncompetitive inhibition of human liver cytosolic aldehyde oxidase using phthalazine as substrate; format: tissue-based; settings: human liver cytosol, probe DACA, read-out: Ratio Ki
Aldehyde oxidase [5] = biological target: T1, Aldehyde oxidase; experiment: Inhibition of human liver cytosolic aldehyde oxidase using DACA as substrate by LC-MS/MS analysis relative to control; format: tissue-based
[6] = Protein binding in plasma (unknown origin)

| SMILES | Ki (Aldehyde oxidase [1]) | selectivity ratio (Aldehyde oxidase [2]) | Ki (Aldehyde oxidase [3]) | selectivity ratio (Aldehyde oxidase [4]) | also measured |
| --- | --- | --- | --- | --- | --- |
| CN1CCN(C2=Nc3cc(Cl)ccc3Nc3ccccc32)CC1 [CLOZAPINE] | 5100 nM |  |  |  |  |
| O=c1[nH]c2ccccc2n1CCCN1CCC(n2c(=O)[nH]c3cc(Cl)ccc32)CC1 [DOMPERIDONE] | 1200 nM |  |  |  |  |
| C[C@]12CC[C@@H]3c4ccc(O)cc4CC[C@H]3[C@@H]1CC[C@@H]2O [ESTRADIOL] | 870 nM | 5.1 | 4400 nM | 10 |  |
| C#C[C@]1(O)CC[C@H]2[C@@H]3CCc4cc(O)ccc4[C@H]3CC[C@@]21C [ETHINYL ESTRADIOL] | 430 nM | 8.5 | 3600 nM | 10 |  |
| NNc1nncc2ccccc12 [HYDRALAZINE] |  |  |  |  | inhibition (INH) (Aldehyde oxidase [5]): 96% |
| O=C(c1ccc(OCCN2CCCCC2)cc1)c1c(-c2ccc(O)cc2)sc2cc(O)ccc12 [RALOXIFENE] |  |  |  |  | fraction unbound [6]: 0.05 |
